Experimental data published in US20080119471A1, “Piperazine urea derivatives for the treatment of endometriosis” (priority 2004, published 2008).

T1: human CCR1 (Homo sapiens, UniProt P32246)
T1 sequence (P32246 1-355): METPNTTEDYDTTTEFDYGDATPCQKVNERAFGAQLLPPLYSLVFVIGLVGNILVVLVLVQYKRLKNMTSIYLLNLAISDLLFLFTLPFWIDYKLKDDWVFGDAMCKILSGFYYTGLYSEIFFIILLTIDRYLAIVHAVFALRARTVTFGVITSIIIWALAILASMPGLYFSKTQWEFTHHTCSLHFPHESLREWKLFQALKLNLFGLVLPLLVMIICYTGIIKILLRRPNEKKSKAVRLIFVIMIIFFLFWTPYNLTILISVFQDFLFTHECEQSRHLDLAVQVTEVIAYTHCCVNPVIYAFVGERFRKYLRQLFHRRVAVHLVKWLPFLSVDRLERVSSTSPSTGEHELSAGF


Columns and labels:
human CCR1 [1] = biological target: T1, human CCR1; assay: In vitro assay for CCR1 receptor antagonists: competition with 125I-MIP-1α or 125I-RANTES on 293MR cells; type: binding; parameters: expressed in transfected cells; conditions: Table 2
Protocol: Human CCR1 cDNA was provided through collaboration with Dr. Stephen Peiper of the University of Louisville, Ky. […] The plasmid also contained hygromycin and puromycin resistance genes. Calcium phosphate transfection standard protocols were used to insert the plasmid into the HEK293 cells. Cells were selected for stable expression of CCR1 using hygromycin and puromycin selection.
• 130 mM NaCl, 5 mM KCl, 1 mM MnCl2, 50 mM Tris, 30 μg/ml bacitracin, 0.1% BSA, pH 7.4.
The stock solution of the compounds was 1 mM in 100% DMSO. […] A serial 1:3 dilution from the highest concentration was made with assay buffer. Six concentrations of each compound were usually being screened to generate a dose curve from which the Ki value was determined.
Assays were performed in 96-well v-bottom microtiter plates in a total volume of 100 μl. […] The cells were washed once in PBS and resuspended in the assay buffer to about 1.1×10^5 cells/mL.
The radioactivities in each well were determined by scintillation counting following addition of 50 μl of scintillation fluid.
The nonspecific binding was defined by the binding in the presence of 100 nM of unlabeled MIP-1α or RANTES.
The dose curves of each compound with 6 concentration points were generated and IC50 values were determined by fitting the data to the log-logit equation (linear) with an EXCEL spread-sheet.

human CCR1 [2] = biological target: T1, human CCR1; conditions: result in words; cited from earlier work

Molecule | Ki (human CCR1 [1]) | signalling through human CCR1 (human CCR1 [2])
C[C@@H]1CN(C(=O)COc2ccc(Cl)cc2CNC(N)=O)[C@@H](C)CN1Cc1ccc(F)cc1 [compound 14] | 0.002 µM | 
CC1CN(C(=O)COc2ccc(Cl)cc2N)C(C)CN1Cc1ccc(F)cc1 (stereo not drawn) [compound 15] | 0.009 µM | 
CC1CN(Cc2ccc(F)cc2)CCN1C(=O)COc1ccc(Cl)c([N+](=O)[O-])c1 (stereo not drawn) [compound 16] | 0.021 µM | 
C[C@@H]1CN(C(=O)COc2ccc(Cl)cc2NCc2ccccc2)[C@@H](C)CN1Cc1ccc(F)cc1 [compound 17] | 0.042 µM | 
CCCC(C)Nc1cc(Cl)ccc1OCC(=O)N1C[C@@H](C)N(Cc2ccc(F)cc2)C[C@@H]1C (stereo partly drawn) [compound 18] | 0.087 µM | 
CC(=O)Nc1cc(Cl)ccc1OCC(=O)N1CCN(Cc2ccc(F)cc2)CC1C (stereo not drawn) [compound 19] | 0.005 µM | 
CCCC(=O)Nc1cc(Cl)ccc1OCC(=O)N1C[C@@H](C)N(Cc2ccc(F)cc2)C[C@@H]1C [compound 20] | 0.007 µM | 
CC(C)C(=O)Nc1cc(Cl)ccc1OCC(=O)N1C[C@@H](C)N(Cc2ccc(F)cc2)C[C@@H]1C [compound 21] | 0.013 µM | 
COCC(=O)Nc1cc(Cl)ccc1OCC(=O)N1C[C@@H](C)N(Cc2ccc(F)cc2)C[C@@H]1C [compound 22] | 0.003 µM | 
COC(=O)CCC(=O)Nc1cc(Cl)ccc1OCC(=O)N1C[C@@H](C)N(Cc2ccc(F)cc2)C[C@@H]1C [compound 23] | 0.005 µM | 
C[C@@H]1CN(C(=O)COc2ccc(Cl)cc2NS(C)(=O)=O)[C@@H](C)CN1Cc1ccc(F)cc1 [compound 24] | 0.006 µM | 
C[C@@H]1CN(C(=O)COc2ccc(Cl)cc2NC(=O)CN)[C@@H](C)CN1Cc1ccc(F)cc1 [compound 26] | 0.001 µM | 
C[C@@H]1CN(C(=O)COc2ccc(Cl)cc2NC(=O)CNC(N)=O)[C@@H](C)CN1Cc1ccc(F)cc1 [compound 27] | 0.002 µM | 
CCN(C)C(C)c1cc(Cl)ccc1OCC(=O)N1C[C@@H](C)N(Cc2ccc(F)cc2)C[C@@H]1C (stereo partly drawn) [compound 28] | 0.018 µM | 
CC(c1cc(Cl)ccc1OCC(=O)N1C[C@@H](C)N(Cc2ccc(F)cc2)C[C@@H]1C)n1ccnc1 (stereo partly drawn) [compound 29] | 0.006 µM | 
C[C@@H]1CN(C(=O)COc2ccc(Cl)cc2C(=O)NCCN)[C@@H](C)CN1Cc1ccc(F)cc1 [compound 30] | 0.009 µM | 
CC(=O)Nc1ccccc1OCC(=O)N1CCN(Cc2ccc(F)cc2)CC1C (stereo not drawn) [compound 31] | 0.106 µM | 
C[C@@H]1CN(C(=O)COc2cccc(C#N)c2)[C@@H](C)CN1Cc1ccc(F)cc1 [compound 32] | 0.068 µM | 

Molecule | Ki (human CCR1 [1]) | signalling through human CCR1 (human CCR1 [2])
Cc1cc(O)cc(OCC(=O)N2C[C@H](C)N(Cc3ccc(F)cc3)C[C@H]2C)c1 [compound 33] | 0.005 µM | 
COC(=O)c1ccc(OC)cc1OCC(=O)N1C[C@@H](C)N(Cc2ccc(F)cc2)C[C@@H]1C [compound 34] | 0.031 µM | 
CC(O)C1CN(Cc2ccc(F)cc2)CCN1C(=O)COc1ccc(Cl)cc1 (stereo not drawn) [compound 35] | 0.013 µM | 
C=CC(O)CC1CN(Cc2ccc(F)cc2)CCN1C(=O)COc1ccc(Cl)cc1 (stereo not drawn) [compound 36] | 0.172 µM | 
O=C(COc1ccc(Cl)cc1)N1CCN(Cc2ccc(F)cc2)C(C(F)(F)F)C1 (stereo not drawn) [compound 37] | 0.148 µM | 
C[C@@H]1CN(C(=O)COc2ccc3ccc(=O)oc3c2)[C@@H](C)CN1Cc1ccc(F)cc1 [compound 39] | 0.018 µM | 
C[C@@H]1CN(C(=O)COc2ccc(Cl)cc2N2C(=O)c3ccccc3C2=O)[C@@H](C)CN1Cc1ccc(F)cc1 [compound 40] | 0.064 µM | 
C[C@@H]1CN(C(=O)CC(CN)c2ccc(Cl)cc2)[C@@H](C)CN1Cc1ccc(F)cc1 (stereo partly drawn) [compound 41] | 0.056 µM | 
CC(=O)NCC(CC(=O)N1C[C@@H](C)N(Cc2ccc(F)cc2)C[C@@H]1C)c1ccc(Cl)cc1 (stereo partly drawn) [compound 42] | 0.026 µM | 
C[C@@H]1CN(C(=O)CC(NS(C)(=O)=O)c2ccc(Cl)cc2)[C@@H](C)CN1Cc1ccc(F)cc1 (stereo partly drawn) [compound 43] | 0.032 µM | 
CCC1CN(Cc2ccc(F)cc2)CCN1C(=O)COc1ccc(Cl)cc1 (stereo not drawn) [compound 44] | 0.015 µM | 
CCC[C@@H]1CN(Cc2ccc(F)cc2)CCN1C(=O)COc1ccc(Cl)cc1 [compound 45] | 0.075 µM | 
O=C(COc1ccc(Cl)cc1)N1CCN(Cc2ccc(F)cc2)CC12CC2 [compound 46] | 0.074 µM | 
C[C@@H]1CN(C(=O)COc2ccc(Cl)cc2C(N)=O)[C@@H](C)CN1Cc1ccc(F)cc1 [compound 47] | 0.003 µM | 
C[C@@H]1CN(Cc2ccc(F)cc2)[C@@H](CC#N)CN1C(=O)COc1ccc(Cl)cc1 [compound 48] | 0.038 µM | 
C[C@@H]1CN(Cc2ccc(F)cc2)[C@@H](CN2CCOCC2)CN1C(=O)COc1ccc(Cl)cc1 [compound 49] | 0.109 µM | 
MCP-1: human chemokine that binds human CCR1 with low affinity; a ligand for CCR2 |  | neither ligand is able to signal
MIP-1β: human chemokine that binds human CCR1 with low affinity (protein, UniProt P13236 24-92, looked up) C-C motif chemokine 4: APMGSDPPTACCFSYTARKLPRNFVVDYYETSSLCSQPAVVFQTKRSKQVCADPSESWVQEYVYDLELN |  | neither ligand is able to signal
